Results reported in article PMC9504178 (Viruses, 2022).

System: NL09 or NL11 strain
Experiment: not given
Assay type: cell-based, influenza A virus
Settings: not given

SMILES | effect on viral entry (NP staining)
CN(C)C/C=C/C(=O)Nc1cc2c(Nc3ccc(F)c(Cl)c3)ncnc2cc1O[C@H]1CCOC1 [AF, afatinib] | inhibited
Cn1cc(-c2cc3c(N4CCN(c5ncc([C@@](C)(N)c6ccc(F)cc6)cn5)CC4)ncnn3c2)cn1 [AV, avapritinib] | no obvious effects on viral entry
CC(C)(C)c1nc(-c2cccc(NS(=O)(=O)c3c(F)cccc3F)c2F)c(-c2ccnc(N)n2)s1 [DA, dabrafenib] | inhibited
O=C(Nc1cnn2ccc(N3CCC[C@@H]3c3cc(F)ccc3F)nc12)N1CC[C@H](O)C1 [LA, larotrectinib] | no obvious effects on viral entry
CCOc1cc2ncc(C#N)c(Nc3ccc(OCc4ccccn4)c(Cl)c3)c2cc1NC(=O)/C=C/CN(C)C [NE, neratinib] | inhibited
CNC(=O)c1cc(Oc2ccc(NC(=O)Nc3ccc(Cl)c(C(F)(F)F)c3)c(F)c2)ccn1 [RG, regorafenib] | inhibited
Cc1cc(Nc2ncnc3ccc(NC4=NC(C)(C)CO4)cc23)ccc1Oc1ccn2ncnc2c1 [TU, tucatinib] | no obvious effects on viral entry

System: human precision-cut lung slices (hPCLSs)
Experiment: LDH-Glo cytotoxicity assay in hPCLSs
Settings: [10×]max: AF 50 μM, DA 100 μM, RG 25 μM; relative to Triton-X 100 positive control, 20% cut-off

SMILES | cytotoxicity (LDH release) in hPCLSs at [10×]max [%]
CN(C)C/C=C/C(=O)Nc1cc2c(Nc3ccc(F)c(Cl)c3)ncnc2cc1O[C@H]1CCOC1 [AF, afatinib] | > 20

System: IAV laboratory strains (PR8 and WSN) and pandemic H1N1 (CA09)
Experiment: not given
Design: method as in earlier work
Settings: A549 cells, AF 1μM, 15 hpi; cited from earlier work

SMILES | effect on viral replication
CN(C)C/C=C/C(=O)Nc1cc2c(Nc3ccc(F)c(Cl)c3)ncnc2cc1O[C@H]1CCOC1 [AF, afatinib] | 2- to 5 fold

System: NL11 (H3N2)
Experiment: not given
Assay type: cell-based, influenza A virus
Settings: not given

SMILES | % Luminescence (relative to untreated / normalized to GFP), NL11 infection [%]
CN(C)C/C=C/C(=O)Nc1cc2c(Nc3ccc(F)c(Cl)c3)ncnc2cc1O[C@H]1CCOC1 [AF, afatinib] | 50

System: NL09
Experiment: not given
Assay type: cell-based, influenza A virus
Settings: not given

SMILES | relative intracellular to extracellular (I/E) viral RNA Ct ratio (egress)
O=C(Nc1cnn2ccc(N3CCC[C@@H]3c3cc(F)ccc3F)nc12)N1CC[C@H](O)C1 [LA, larotrectinib] | did not observe significant differences in any single step of viral replication

System: B-Raf
Experiment: not given
Settings: no reference given; cited from earlier work

SMILES | higher selectivity for B-Raf than vemurafenib
CC(C)(C)c1nc(-c2cccc(NS(=O)(=O)c3c(F)cccc3F)c2F)c(-c2ccnc(N)n2)s1 [DA, dabrafenib] | 10- to 100 fold
CNC(=O)c1cc(Oc2ccc(NC(=O)Nc3ccc(Cl)c(C(F)(F)F)c3)c(F)c2)ccn1 [RG, regorafenib] | 10- to 100 fold

System: IAV
Experiment: not given
Settings: single donor; cited from earlier work

SMILES | potency in primary bronchial cells vs A549 cells
CNC(=O)c1cc(Oc2ccc(NC(=O)Nc3ccc(Cl)c(C(F)(F)F)c3)c(F)c2)ccn1 [RG, regorafenib] | less potent in primary bronchial cells than in A549 cells

System: A/Netherlands/241/11 (NL11)
Experiment: not given
Assay type: cell-based, influenza A virus
Settings: not given

SMILES | relative infectivity, NL11 [%]
CN(C)C/C=C/C(=O)Nc1cc2c(Nc3ccc(F)c(Cl)c3)ncnc2cc1O[C@H]1CCOC1 [AF, afatinib] | 65
Cn1cc(-c2cc3c(N4CCN(c5ncc([C@@](C)(N)c6ccc(F)cc6)cn5)CC4)ncnn3c2)cn1 [AV, avapritinib] | 81
CC(C)(C)c1nc(-c2cccc(NS(=O)(=O)c3c(F)cccc3F)c2F)c(-c2ccnc(N)n2)s1 [DA, dabrafenib] | 126
O=C(Nc1cnn2ccc(N3CCC[C@@H]3c3cc(F)ccc3F)nc12)N1CC[C@H](O)C1 [LA, larotrectinib] | 91
CCOc1cc2ncc(C#N)c(Nc3ccc(OCc4ccccn4)c(Cl)c3)c2cc1NC(=O)/C=C/CN(C)C [NE, neratinib] | 92
CNC(=O)c1cc(Oc2ccc(NC(=O)Nc3ccc(Cl)c(C(F)(F)F)c3)c(F)c2)ccn1 [RG, regorafenib] | 80
Cc1cc(Nc2ncnc3ccc(NC4=NC(C)(C)CO4)cc23)ccc1Oc1ccn2ncnc2c1 [TU, tucatinib] | 100

System: c-Raf
Experiment: not given
Settings: cited from earlier work

SMILES | selectivity for c-Raf relative to B-Raf
CNC(=O)c1cc(Oc2ccc(NC(=O)Nc3ccc(Cl)c(C(F)(F)F)c3)c(F)c2)ccn1 [RG, regorafenib] | ~ 10 fold

Same assay, conditions: no reference given; cited from earlier work

SMILES | higher selectivity for c-Raf than vemurafenib [fold]
CC(C)(C)c1nc(-c2cccc(NS(=O)(=O)c3c(F)cccc3F)c2F)c(-c2ccnc(N)n2)s1 [DA, dabrafenib] | 10
CNC(=O)c1cc(Oc2ccc(NC(=O)Nc3ccc(Cl)c(C(F)(F)F)c3)c(F)c2)ccn1 [RG, regorafenib] | 10

System: NL09 and NL11 strains
Experiment: not given
Assay type: cell-based, influenza A virus
Settings: not given

SMILES | effect on viral titers, NL11 compared with NL09 | reduction in viral titers | reduction of the titers of both viruses
CN(C)C/C=C/C(=O)Nc1cc2c(Nc3ccc(F)c(Cl)c3)ncnc2cc1O[C@H]1CCOC1 [AF, afatinib] | significantly stronger in NL11-infected cells | 100- to 3000 fold | 
Cn1cc(-c2cc3c(N4CCN(c5ncc([C@@](C)(N)c6ccc(F)cc6)cn5)CC4)ncnn3c2)cn1 [AV, avapritinib] |  |  | 10- to 30 fold
CC(C)(C)c1nc(-c2cccc(NS(=O)(=O)c3c(F)cccc3F)c2F)c(-c2ccnc(N)n2)s1 [DA, dabrafenib] | significantly stronger in NL11-infected cells | 10- to 100 fold | 
O=C(Nc1cnn2ccc(N3CCC[C@@H]3c3cc(F)ccc3F)nc12)N1CC[C@H](O)C1 [LA, larotrectinib] |  |  | 10- to 30 fold
CCOc1cc2ncc(C#N)c(Nc3ccc(OCc4ccccn4)c(Cl)c3)c2cc1NC(=O)/C=C/CN(C)C [NE, neratinib] |  | 40- to 50 fold | 10- to 30 fold
CNC(=O)c1cc(Oc2ccc(NC(=O)Nc3ccc(Cl)c(C(F)(F)F)c3)c(F)c2)ccn1 [RG, regorafenib] | significantly stronger in NL11-infected cells | 10- to 1000 fold | 
Cc1cc(Nc2ncnc3ccc(NC4=NC(C)(C)CO4)cc23)ccc1Oc1ccn2ncnc2c1 [TU, tucatinib] |  |  | 10- to 30 fold

System: NL09 or NL11
Experiment: not given
Assay type: cell-based, influenza A virus
Settings: not given

SMILES | significance of viral titer reduction in infected hPCLSs | time at which inhibition of virus replication in hPCLSs was observed [hpi] | antiviral effect in hPCLSs compared to A549 cells
CN(C)C/C=C/C(=O)Nc1cc2c(Nc3ccc(F)c(Cl)c3)ncnc2cc1O[C@H]1CCOC1 [AF, afatinib] | consistently significant after 48 hpi | ≤ 12 | 
Cn1cc(-c2cc3c(N4CCN(c5ncc([C@@](C)(N)c6ccc(F)cc6)cn5)CC4)ncnn3c2)cn1 [AV, avapritinib] |  | ≤ 12 | 
CC(C)(C)c1nc(-c2cccc(NS(=O)(=O)c3c(F)cccc3F)c2F)c(-c2ccnc(N)n2)s1 [DA, dabrafenib] | consistently significant after 48 hpi | ≤ 12 | 
O=C(Nc1cnn2ccc(N3CCC[C@@H]3c3cc(F)ccc3F)nc12)N1CC[C@H](O)C1 [LA, larotrectinib] |  | ≥ 72 | 
CCOc1cc2ncc(C#N)c(Nc3ccc(OCc4ccccn4)c(Cl)c3)c2cc1NC(=O)/C=C/CN(C)C [NE, neratinib] |  | ≤ 12 | more potent antiviral effect
CNC(=O)c1cc(Oc2ccc(NC(=O)Nc3ccc(Cl)c(C(F)(F)F)c3)c(F)c2)ccn1 [RG, regorafenib] | consistently significant after 48 hpi | ≤ 12 | more potent antiviral effect
Cc1cc(Nc2ncnc3ccc(NC4=NC(C)(C)CO4)cc23)ccc1Oc1ccn2ncnc2c1 [TU, tucatinib] |  | ≤ 12 | 

System: A(H1N1)pdm09 A/Netherlands/602/09 (NL09)
Experiment: not given
Assay type: cell-based, influenza A virus
Settings: not given

SMILES | NL09 viral titer reduction
O=C(Nc1cnn2ccc(N3CCC[C@@H]3c3cc(F)ccc3F)nc12)N1CC[C@H](O)C1 [LA, larotrectinib] | ~ 9 fold

System: NL09 and NL11
Experiment: not given
Assay type: cell-based, influenza A virus
Settings: not given

SMILES | highest viral titer reduction at MOI = 0.1 | time dependence of effect on virus replication
CN(C)C/C=C/C(=O)Nc1cc2c(Nc3ccc(F)c(Cl)c3)ncnc2cc1O[C@H]1CCOC1 [AF, afatinib] | 1000 fold | greater effect on virus replication at the early time points (24 hpi)
Cn1cc(-c2cc3c(N4CCN(c5ncc([C@@](C)(N)c6ccc(F)cc6)cn5)CC4)ncnn3c2)cn1 [AV, avapritinib] | 10 fold | 
CC(C)(C)c1nc(-c2cccc(NS(=O)(=O)c3c(F)cccc3F)c2F)c(-c2ccnc(N)n2)s1 [DA, dabrafenib] | 100 fold | 
O=C(Nc1cnn2ccc(N3CCC[C@@H]3c3cc(F)ccc3F)nc12)N1CC[C@H](O)C1 [LA, larotrectinib] | 100 fold | greater effect on virus replication at the early time points (24 hpi)
CCOc1cc2ncc(C#N)c(Nc3ccc(OCc4ccccn4)c(Cl)c3)c2cc1NC(=O)/C=C/CN(C)C [NE, neratinib] | 100 fold | greater effect on virus replication at the early time points (24 hpi)
CNC(=O)c1cc(Oc2ccc(NC(=O)Nc3ccc(Cl)c(C(F)(F)F)c3)c(F)c2)ccn1 [RG, regorafenib] | 10,000 fold | greater effect on virus replication at the early time points (24 hpi)
Cc1cc(Nc2ncnc3ccc(NC4=NC(C)(C)CO4)cc23)ccc1Oc1ccn2ncnc2c1 [TU, tucatinib] | 10 fold | 

System: A549 cells
Experiment: not given
Settings: not given

SMILES | relative cell viability over mock-infected treated controls
CN(C)C/C=C/C(=O)Nc1cc2c(Nc3ccc(F)c(Cl)c3)ncnc2cc1O[C@H]1CCOC1 [AF, afatinib] | only marginally decreased the relative viability

System: A/Netherlands/602/09 (NL09)
Experiment: not given
Assay type: cell-based, influenza A virus
Settings: not given

SMILES | relative infectivity, NL09 [%]
Cn1cc(-c2cc3c(N4CCN(c5ncc([C@@](C)(N)c6ccc(F)cc6)cn5)CC4)ncnn3c2)cn1 [AV, avapritinib] | 80
CC(C)(C)c1nc(-c2cccc(NS(=O)(=O)c3c(F)cccc3F)c2F)c(-c2ccnc(N)n2)s1 [DA, dabrafenib] | 117
O=C(Nc1cnn2ccc(N3CCC[C@@H]3c3cc(F)ccc3F)nc12)N1CC[C@H](O)C1 [LA, larotrectinib] | 60
CCOc1cc2ncc(C#N)c(Nc3ccc(OCc4ccccn4)c(Cl)c3)c2cc1NC(=O)/C=C/CN(C)C [NE, neratinib] | 70
CNC(=O)c1cc(Oc2ccc(NC(=O)Nc3ccc(Cl)c(C(F)(F)F)c3)c(F)c2)ccn1 [RG, regorafenib] | 75
Cc1cc(Nc2ncnc3ccc(NC4=NC(C)(C)CO4)cc23)ccc1Oc1ccn2ncnc2c1 [TU, tucatinib] | 86
